# Experimental data: patent publication US4395969A (priority 1981, dated 1983)
# How the values were obtained:
# [1] = test system: brook stickleback; test: Static bioassay, lethal concentration to brook stickleback; assay type: in vivo, Eucalia inconstans; details: 15 C
# Description: (§1) Bioassays utilized water from an artesian well at Moscow, Idaho and from the headwaters of the Palouse River, also in Idaho. The chemical characteristics of the artesian water were analyzed as follows: Total hardness 67-120 mg/l; total dissolved solids, 160-175 mg/l; and pH 7.1. The chemistry of the Palouse River water was analyzed as follows: total hardness 17 mg/l; methyl orange alkalinity 26 mg/l; total dissolved solids, 32 mg/l and pH, 7.0.
# (§2) Fish were acclimated to test temperatures, usually at 5, 7.5, 10, 15 and 20 degrees Celsius (C), at least 60 hours before exposure to toxicants. For fish and crayfish four water baths regulated the temperature of assay aquaria. Each water bath contained a battery of 20 identical 19-liter clear glass containers or 11.4-liter plastic aquaria lined with disposable polyethylene bags and covered with Plexiglass lids to reduce evaporation. For larger fish and large numbers of fish the bioassays were made in two temperature controlled rooms that contained a series of 700-liter circular fiberglass vats and a series of 76- and 91-liter plastic containers.
# (§3) Standard bioassay techniques were used in sorting fish and conducting the tests. Fish were placed in aerated test aquaria overnight to permit fish to recover from stress due to handling and to deprive them of food. The average load varied but most bioassays were conducted with about 1 g of fish per liter of water.
# (§4) Aliquots of organophosphates were dissolved in ethanol and dispensed to the aquaria to provide concentrations suitable for obtaining the LC0 and LC50 of desirable fish and the LC50 and LC100 of target fish. Control fish were conditioned in the same manner as the test fish, but no chemical was added to the control vessels during the assays. After the addition of a chemical, observations were made mainly at 3, 6, 12, 24, 48, 96, and 192 h. The weight and fork length of fish were obtained when fishes were sacrificed.
# (§5) Delineation bioassays determined primarily the LC50 and LC100 of sucker and stickleback and the LC0 and LC50 of salmonids.
# (§6) The statistical LC1, LC50, and LC99 were interpolated and/or extrapolated using probit graph paper to approximate the LC0, LC50, and LC100 when the latter set of values was not closely determined by single concentrations in a series.
# (§7) The approximate LC50 and LC100 of the target fishes (threespine and brook sticklebacks and bridgelip and white suckers) are tabulated in Table 1. The 96-hour selectivity and safety indices of selected species of salmonids versus the three-spine stickleback are tabulated in Table 3.
# (§8) Threespine stickleback, brook stickleback, bridgelip sucker, white sucker, chinook salmon, coho salmon, sockeye salmon, kokanee, Kamloops trout, cutthroat trout, and brook trout were treated with various concentrations of 2, 2, 2, 1-tetrachloroethyl diethyl phosphate and at various temperatures to determine approximate selectivity and safety indices. The approximate LC50 and LC100 of the target fishes (threespine and brook sticklebacks and bridgelip and white suckers) are tabulated in Table 5. The 96-hour selectivity and safety indices of selected species of salmonids versus the threespine stickleback are tabulated in Table 7.
# [2] = test system: white sucker; test: Static bioassay, lethal concentration to white sucker; assay type: in vivo, C. commmersoni
# Description: as §1, §2, §3, §4, §5, §6, §7, §8
# [3] = Static bioassay, lethal concentration to brook trout; assay type: in vivo, Salvelinus fontinalis; details: brook trout, water, 15 C
# Description: as §1, §2, §3, §4, §5, §6, §7, §8
# [4] = test system: brook trout; test: as above; assay type: in vivo, Salvelinus fontinalis; details: 15 C
# Description: as §1, §2, §3, §4, §5, §6, §7, §8
# [5] = test system: threespine stickleback; design: species or system Gasterosteus aculeatus; details: in vivo
# [6] = test system: bridgelip sucker; test: Selectivity and safety indices of salmonids versus the bridgelip sucker; assay type: in vivo, Catastomus columbianus; details: 96 h
# Source text: as §5, §6, §7, §8
# [7] = test system: crayfish; test: Bioassay, crayfish; assay type: in vivo, Pacifasticus klamathensis; details: 10 C
# Description: Cursory bioassays were made with small numbers of other fishes and a crayfish (Pacifasticus klamathensis) to check on the universal selectivity of the toxicants. The fishes included Arctic grayling (Thymallus arcticus), longnose sucker (C. catastomus), largescale sucker, (C. macrocheilus), and spotted sucker (Minytrema melanops).
# A series of bioassays tested crayfish (9 to 10 crayfish per aquarium) at concentrations of 1, 3, and 10 mg/l of 2, 2-dichlorovinyl diethyl phosphate. […] A second series of bioassays tested crayfish (10 crayfish per aquarium) at 10 concentrations of 2, 2, 2, 1-tetrachloroethyl diethyl phosphate (range, 0 to 1400 μg/l).
# [8] = Half-life / degradation in water (gas chromatograph analysis); assay type: physicochemical; details: river water, 15 C
# Source text: The presence of bacteria and other microorganisms affect the rate of degradation of the dichloro- and tetrachloro-compounds. Because of this the chemicals break down much faster in river water than in artesian well water or distilled water. For short term bioassays the potencies of the chemicals were not affected by the chemistry of the water.
# [9] = test system: sucker and stickleback; details: in vivo
# [10] = in vivo; details: chinook salmon
# [11] = test system: coho salmon; test: Long-term static bioassay, coho salmon; details: 64 days, 10 C, individually
# [12] = test system: chinook salmon; test: Long-term static bioassay, chinook salmon; details: 64 days, 10 C, individually
# [13] = test system: threespine stickleback; test: Long-term static bioassay, threespine stickleback; details: 32 days, 10 C, individually
# [14] = test system: Salmonella, five strains; test: Salmonella standard plate test for mutagens/carcinogens; details: 0.5, 5, 50, 500, and 5000 mg/l
# [15] = 300 μg/l, listed as 2, 2-dichlorovinyl diethyl phosphate
# [16] = 6 μg/l (or less), listed as 2, 2, 2, 1-tetrachloroethyl diethyl phosphate
smiles,measurement,setting,value
"CCOP(=O)(OC=C(Cl)Cl)OCC [2,2-dichlorovinyl diethyl phosphate]",LC50,[1]; 24 h,0.8 µg/mL
same,LC100,[1]; 24 h,1.0 mg/L
same,LC50,[1]; 48 h,0.4 µg/mL
same,LC100,[1]; 48 h,0.6 mg/L
same,LC50,[1]; 96 h,0.4 µg/mL
same,LC100,[1]; 96 h,0.6 mg/L
same,LC50,[1]; 192 h,0.3 µg/mL
same,LC100,[1]; 192 h,0.6 mg/L
same,LC50,"[2]; 20 C, 24 h",0.10 µg/mL
same,LC50,"[2]; 20 C, 48 h",0.07 µg/mL
same,LC50,"[2]; 20 C, 96 h",0.06 µg/mL
same,LC100,"[2]; 20 C, 96 h",0.10 mg/L
same,LC50,"[2]; 20 C, 192 h",0.05 µg/mL
same,LC100,"[2]; 20 C, 192 h",0.10 mg/L
same,LC50 at 48 h,[3],5 µg/mL
same,LC50 at 96 h,[3],3.3 µg/mL
same,LC50 at 192 h,[3],3.2 µg/mL
same,LC0,[4]; 48 h,4.0 mg/L
same,LC0,[4]; 96 h,2.0 mg/L
same,LC0,[4]; 192 h,0.8 mg/L
same,Selectivity index (LC50/LC50),[5],5.7
same,Safety index (LC0/LC100),"[6]; Kamloops, 5 C",7
same,Selectivity index (LC50/LC50),"[6]; Kamloops, 5 C",> 34
same,Safety index (LC0/LC100),"[6]; Kamloops, 10 C",20
same,Selectivity index (LC50/LC50),"[6]; Kamloops, 10 C",67
same,Safety index (LC0/LC100),"[6]; Kamloops, 15 C",10
same,Selectivity index (LC50/LC50),"[6]; Kamloops, 15 C",70
same,Safety index (LC0/LC100),"[6]; brook trout, 15 C",20
same,Selectivity index (LC50/LC50),"[6]; brook trout, 15 C",66
same,Safety index (LC0/LC100),"[6]; chinook, 10 C",60
same,Selectivity index (LC50/LC50),"[6]; chinook, 10 C",87
same,Safety index (LC0/LC100),"[6]; chinook, 15 C",27
same,Selectivity index (LC50/LC50),"[6]; chinook, 15 C",68
same,Safety index (LC0/LC100),"[6]; cutthroat, 10 C",40
same,Selectivity index (LC50/LC50),"[6]; cutthroat, 10 C",> 60
same,Safety index (LC0/LC100),"[6]; cutthroat, 15 C",20
same,Selectivity index (LC50/LC50),"[6]; cutthroat, 15 C",50
same,Safety index (LC0/LC100),"[6]; sockeye, 7.5 C",30
same,Selectivity index (LC50/LC50),"[6]; sockeye, 7.5 C",100
same,Safety index (LC0/LC100),"[6]; sockeye, 10 C",30
same,Selectivity index (LC50/LC50),"[6]; sockeye, 10 C",75
same,Safety index (LC0/LC100),"[6]; steelhead, 5 C",13
same,Selectivity index (LC50/LC50),"[6]; steelhead, 5 C",47
same,crayfish mortality,"[7]; 1 mg/l, 96 h",No crayfish died
same,crayfish mortality,"[7]; 3 mg/l, 96 h",1 out of 9 crayfish died
same,crayfish mortality,"[7]; 10 mg/l, 24 h",No crayfish died
same,half-life,[8],< 20 days
same,potency for suckers relative to stickleback,[9],about 10 times
same,LC50 at 192 h,[10],5 µg/mL
same,mortality,[11]; 300 μg/l,essentially no mortality
same,mortality,[11]; [15],no significant mortality
same,mortality,[12]; 300 μg/l,essentially no mortality
same,mortality,[12]; [15],no significant mortality
same,mortality,[13]; 600 μg/l,65%
same,mutagenic activity,[14],no mutagenic activity
"CCOP(=O)(OCC)OC(Cl)C(Cl)(Cl)Cl (stereo not shown) [2,2,2,1-tetrachloroethyl diethyl phosphate]",LC50,[1]; 24 h,0.006 µg/mL
same,LC100,[1]; 24 h,0.01 mg/L
same,LC100,[1]; 48 h,0.008 mg/L
same,LC100,[1]; 96 h,0.006 mg/L
same,LC50,"[2]; 15 C, 24 h",0.004 µg/mL
same,LC100,"[2]; 15 C, 24 h",0.01 mg/L
same,LC50,"[2]; 15 C, 48 h",< 0.003 µg/mL
same,LC100,"[2]; 15 C, 48 h",0.01 mg/L
same,LC50 at 48 h,[3],0.022 µg/mL
same,LC50 at 96 h,[3],0.02 µg/mL
same,LC50 at 192 h,[3],0.02 µg/mL
same,LC0,[4]; 48 h,0.01 mg/L
same,LC0,[4]; 96 h,0.01 mg/L
same,LC0,[4]; 192 h,0.01 mg/L
same,Safety index (LC0/LC100),[5]; 5760 min,2.3
same,Safety index (LC0/LC100),"[6]; Kamloops, 5 C",2.4
same,Selectivity index (LC50/LC50),"[6]; Kamloops, 5 C",4.3
same,Safety index (LC0/LC100),"[6]; Kamloops, 10 C",1.8
same,Selectivity index (LC50/LC50),"[6]; Kamloops, 10 C",6.0
same,Safety index (LC0/LC100),"[6]; Kamloops, 15 C",2.1
same,Selectivity index (LC50/LC50),"[6]; Kamloops, 15 C",6.0
same,Safety index (LC0/LC100),"[6]; brook trout, 15 C",1.4
same,Selectivity index (LC50/LC50),"[6]; brook trout, 15 C",5.0
same,Safety index (LC0/LC100),"[6]; chinook, 10 C",2.4
same,Selectivity index (LC50/LC50),"[6]; chinook, 10 C",6.3
same,Safety index (LC0/LC100),"[6]; coho, 10 C",1.7
same,Selectivity index (LC50/LC50),"[6]; coho, 10 C",5.8
same,Safety index (LC0/LC100),"[6]; cutthroat, 10 C",1.7
same,Selectivity index (LC50/LC50),"[6]; cutthroat, 10 C",4.8
same,Safety index (LC0/LC100),"[6]; cutthroat, 15 C",2.0
same,Selectivity index (LC50/LC50),"[6]; cutthroat, 15 C",4.5
same,Safety index (LC0/LC100),"[6]; kokanee, 15 C",2.9
same,Selectivity index (LC50/LC50),"[6]; kokanee, 15 C",7.5
same,Safety index (LC0/LC100),"[6]; sockeye, 10 C",1.4
same,Selectivity index (LC50/LC50),"[6]; sockeye, 10 C",7.5
same,concentration at which no crayfish died,[7]; 96 h,≤ 200 ng/mL
same,half-life,[8],~11 days
same,activity relative to the dichloro-compounds,[9],about 100 times
same,recommended safe and effective concentration,[9],20 µg/L
same,LC50 at 48 h,[10],0.035 µg/mL
same,LC50 at 96 h,[10],0.025 µg/mL
same,LC50 at 192 h,[10],0.025 µg/mL
same,mortality,[11]; 6 μg/l (or less),Essentially no mortality
same,mortality,[11]; [16],no significant mortality
same,mortality,[12]; 6 μg/l (or less),Essentially no mortality
same,mortality,[12]; [16],no significant mortality
same,mortality,[13]; 4 μg/l,100%
same,mutagenic activity,[14],no mutagenic activity
